Reference: PMC2649372 (Biochemistry, 2008)
Positions count from the first letter of the chain named. Marks after values point to notes of the source that are not given here.

Tests used:
Assay in all cases: Agonist-induced currents, voltage clamp electrophysiology in Xenopus oocytes
Type in all cases: cell-based
[1] = biological target: T1, E129N mutant 5-HT3 receptor (mouse 5-HT3A subunit) (Mus musculus, UniProt P23979, E129N); conditions: E129N
T1 sequence (P23979 24-483 isoform P23979-2 E129N limits assumed): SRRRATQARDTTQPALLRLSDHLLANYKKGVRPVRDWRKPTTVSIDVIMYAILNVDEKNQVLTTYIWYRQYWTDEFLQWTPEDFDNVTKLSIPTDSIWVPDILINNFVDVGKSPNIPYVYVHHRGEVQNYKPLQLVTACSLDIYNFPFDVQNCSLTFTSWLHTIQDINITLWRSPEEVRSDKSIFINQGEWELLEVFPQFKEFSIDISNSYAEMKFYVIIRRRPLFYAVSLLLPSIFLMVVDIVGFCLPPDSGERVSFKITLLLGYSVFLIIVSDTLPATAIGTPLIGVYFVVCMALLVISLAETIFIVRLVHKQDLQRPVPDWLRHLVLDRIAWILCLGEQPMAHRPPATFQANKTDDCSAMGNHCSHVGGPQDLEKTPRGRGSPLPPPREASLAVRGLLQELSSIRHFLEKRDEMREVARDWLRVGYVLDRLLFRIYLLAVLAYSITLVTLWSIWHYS

[2] = biological target: T2, E129H mutant 5-HT3 receptor (mouse 5-HT3A subunit) (Mus musculus, UniProt P23979, E129H)
T2 sequence (P23979 24-483 isoform P23979-2 E129H limits assumed): T1 sequence (P23979 24-483 isoform P23979-2 E129N limits assumed) with N106H

[3] = biological target: T3, WT 5-HT3 receptor (mouse 5-HT3A subunit) (Mus musculus, UniProt P23979); conditions: WT
T3 sequence (P23979 24-483 isoform P23979-2 limits assumed): T1 sequence (P23979 24-483 isoform P23979-2 E129N limits assumed) with N106E

[4] = biological target: T4, N128K mutant 5-HT3 receptor (mouse 5-HT3A subunit) (Mus musculus, UniProt P23979, N128K)
T4 sequence (P23979 24-489 N128K): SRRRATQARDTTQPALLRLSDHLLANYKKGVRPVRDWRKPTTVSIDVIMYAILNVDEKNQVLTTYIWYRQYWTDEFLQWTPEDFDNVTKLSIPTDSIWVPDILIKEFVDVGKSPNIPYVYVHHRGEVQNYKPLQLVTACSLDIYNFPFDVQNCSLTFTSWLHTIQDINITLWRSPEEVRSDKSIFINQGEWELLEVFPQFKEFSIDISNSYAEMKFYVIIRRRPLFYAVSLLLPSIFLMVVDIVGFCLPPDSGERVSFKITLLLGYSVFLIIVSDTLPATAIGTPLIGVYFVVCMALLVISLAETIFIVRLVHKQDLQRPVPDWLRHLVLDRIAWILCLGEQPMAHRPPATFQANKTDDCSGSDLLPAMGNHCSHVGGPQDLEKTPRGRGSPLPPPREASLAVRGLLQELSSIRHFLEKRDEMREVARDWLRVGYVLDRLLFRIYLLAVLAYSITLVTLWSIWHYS

[5] = biological target: T5, N128A mutant 5-HT3 receptor (mouse 5-HT3A subunit) (Mus musculus, UniProt P23979, N128A); conditions: N128A
T5 sequence (P23979 24-483 isoform P23979-2 N128A limits assumed): T1 sequence (P23979 24-483 isoform P23979-2 E129N limits assumed) with N105A, N106E

[6] = oocytes, holding potential −60 mV

EC50 [1] [nM] | nH (Hill coefficient) [1] | pEC50 ([1]; SR = small (<100 nA) responses) | EC50 [2] [nM] | pEC50 [2] | EC50 [3, 6] [nM] | pEC50 [3, 6] | EC50 [4] [nM] | pEC50 [4] | EC50 [5] [nM] | pEC50 [5] | SMILES | size of agonist response (current) [1] [µA] | nH (Hill coefficient) [2] | nH (Hill coefficient) [3] | nH (Hill coefficient) [4] | nH (Hill coefficient) [5]
620 | 1.25 ± 0.19 | 6.21 ± 0.05 | 370 | 6.43 ± 0.04 | 470 | 6.33 ± 0.02 | 3900 | 5.41 ± 0.03 ^b | 1100 | 5.95 ± 0.02 | N=C(N)NC(=N)Nc1cccc(Cl)c1 [mCPBG, m-chlorophenylbiguanide] | > 5 | 1.63 ± 0.20 | 2.03 ± 0.23 | 1.43 ± 0.16 | 1.33 ± 0.08
 |  |  |  |  |  |  |  |  |  |  | NCCc1c[nH]c2ccc(O)cc12 [5-HT, 5-hydroxytryptamine] | > 5 | 1.07 ± 0.24 ^b | 2.54 ± 0.15 | 2.13 ± 0.38 | 1.34 ± 0.13 ^b
